Data set [1] is described as follows: Cytotoxicity against African green monkey Vero cells after 72 hrs by XTT assay. The class given is cell-based. To be noted: chlorocebus sabaeus.
The subject of data set [2] is Zika virus. In words: Antiviral activity against Zika virus infected in African green monkey Vero cells assessed as inhibition of viral RNA replication at 10 uM after 24 hrs by RT-PCR method relative to control. The class given is functional.
The test system of data set [3] is Zika virus. Put plainly: Potency index, ratio of chloroquine EC50 to test compound EC50 for Zika virus. The class given is functional.
Data set [4] in a line: Selectivity index, ratio of CC50 for African green monkey Vero cells to EC50 for Zika virus. The class given is toxicity. The conditions noted are these: read-out: Ratio CC50/EC50.
Data set [5] deals with Zika virus. Put plainly: Antiviral activity against Zika virus infected in African green monkey Vero cells assessed as inhibition of viral RNA replication after 24 hrs by RT-PCR method. The class given is functional.
The test system of data set [6] is Vero. In words: Cytotoxicity against African green monkey Vero cells assessed as reduction in cell viability at 10 uM after 72 hrs by XTT assay relative to control. The class given is cell-based. To be noted: chlorocebus sabaeus. A general note: Formazan colour is commonly taken as a measure of viable cells.

The CC50 is the concentration that lowers cell viability or growth by half. For orientation: inhibition means the percentage by which the read-out fell short of the control. For orientation: EC50 means the midpoint of the concentration-response curve. `Clc1ccc2c(NCCN=Cc3ccncc3)ccnc2c1` showed a CC50 at 72 h in data set [1] of 571 µM. In addition, the inhibition at 10 µM in data set [2] amounted to 74%. The “Ratio EC50” value in data set [3] is on record as 10. In data set [4], the selectivity ratio came to 380. Moreover, the EC50 in data set [5] is 1500 nM.
Take `Cc1ccc(C=NCCNc2ccnc3cc(Cl)ccc23)cc1`: the inhibition at 10 µM in data set [2] came out at 66%.
`Clc1ccc2c(NCCN=Cc3cccnc3)ccnc2c1`: the CC50 at 72 h in data set [1] is 578 µM. Besides, in data set [2], the inhibition at 10 µM was 80%. The “Ratio EC50” value in data set [3] is listed as 5. In addition, in data set [4], the selectivity ratio was 170. Also, the EC50 in data set [5] was 3400 nM.
The molecule `O=[N+]([O-])c1ccc(C=NCCNc2ccnc3cc(Cl)ccc23)s1` gave a CC50 at 72 h in data set [1] of 478 µM. In addition, the inhibition at 10 µM in data set [2] stood at 78%. Besides, the “Ratio EC50” value in data set [3] was 10. The selectivity ratio in data set [4] came out at 318. Further, in data set [5], the 50% effective concentration (EC50) is 1500 nM.
On to `Clc1ccc2c(NCCN=Cc3ccc(Br)cc3)ccnc2c1`, for which the inhibition at 10 µM in data set [2] is 52%.
Turning to `O=[N+]([O-])c1ccc(C=NCCNc2ccnc3cc(Cl)ccc23)o1`, in data set [1], the CC50 at 72 h amounted to 412 µM. For the same molecule, in data set [2], the inhibition at 10 µM is 72%. Further, the “Ratio EC50” value in data set [3] is reported as 10. Further, the selectivity ratio in data set [4] is 515. For the same molecule, in data set [5], the EC50 was 800 nM.
As for `Clc1ccc2c(NCCN=Cc3ccccn3)ccnc2c1`, the inhibition at 10 µM in data set [2] was 70%.
Regarding `COc1cc(C=NCCNc2ccnc3cc(Cl)ccc23)cc(OC)c1OC`, the inhibition at 10 µM in data set [2] stood at 41%.
The same measure, in the same setting: under `NCCNc1ccnc2cc(Cl)ccc12` stands 43%.
Same read-out and setting: the figure for `CCN(CC)CCCC(C)Nc1ccnc2cc(Cl)ccc12` (stereo not drawn) [CHLOROQUINE] is 47%; for `Oc1ccccc1C=NCCNc1ccnc2cc(Cl)ccc12` it is 57%; for `COc1ccc(OC)c(C=NCCNc2ccnc3cc(Cl)ccc23)c1` it is 51%.
As for `COc1cccc(C=NCCNc2ccnc3cc(Cl)ccc23)c1O`, it took 487 µM to reach half-maximal cytotoxicity in data set [1] (CC50 at 72 h). Also, the inhibition at 10 µM in data set [2] amounted to 74%. For the same molecule, the “Ratio EC50” value in data set [3] is listed as 10. In data set [4], the selectivity ratio came to 304. Moreover, the EC50 in data set [5] is 1600 nM.
Turning to `O=[N+]([O-])c1cccc(C=NCCNc2ccnc3cc(Cl)ccc23)c1`, the inhibition at 10 µM in data set [2] stood at 59%.
For `Fc1ccc(C=NCCNc2ccnc3cc(Cl)ccc23)cc1`, in data set [1], half-maximal cytotoxicity (CC50 at 72 h) was put at 534 µM. Besides, in data set [2], the inhibition at 10 µM came out at 75%. The “Ratio EC50” value in data set [3] amounted to 10. Besides, in data set [4], the selectivity ratio was determined as 356. Moreover, the EC50 in data set [5] was 1500 nM.
As for `COc1ccccc1C=NCCNc1ccnc2cc(Cl)ccc12`, the inhibition at 10 µM in data set [2] turned out to be 70%.
Take `Clc1ccc2c(NCCN=Cc3c(Cl)cccc3Cl)ccnc2c1`: the Activity in data set [6] is over 80%.
In data set [1], `O=[N+]([O-])c1ccc(C=NCCNc2ccnc3cc(Cl)ccc23)cc1` came in with a CC50 at 72 h of 512 µM. For the same molecule, in data set [2], the inhibition at 10 µM worked out at 82%. Besides, the “Ratio EC50” value in data set [3] is given as 10. Also, in data set [4], the selectivity ratio stood at 341. For the same molecule, the concentration for a half-maximal effect (EC50) in data set [5] is 1500 nM.
On to `Clc1ccc(C=NCCNc2ccnc3cc(Cl)ccc23)c(Cl)c1`, for which the Activity in data set [6] is recorded as over 80%.
Take `Oc1cccc(C=NCCNc2ccnc3cc(Cl)ccc23)c1O`: the Activity in data set [6] is reported as over 80%.
As for `COc1cccc(OC)c1C=NCCNc1ccnc2cc(Cl)ccc12`, the CC50 at 72 h in data set [1] is 458 µM. Further, the inhibition at 10 µM in data set [2] is 75%. The “Ratio EC50” value in data set [3] was found to be 10. The selectivity ratio in data set [4] turned out to be 305. Also, the EC50 in data set [5] stood at 1500 nM.
On the same counts, the results for `Clc1ccc2c(NCCN=Cc3ccccc3)ccnc2c1` are 489 µM, 76%, 10, 407 and 1200 nM.

Source of the values: ChEMBL document CHEMBL3997789, “N-(2-(arylmethylimino)ethyl)-7-chloroquinolin-4-amine derivatives, synthesized by thermal and ultrasonic means, are endowed with anti-Zika virus activity” (Eur J Med Chem, 2017).
